Reference: patent US11130733B2, “4-OXO-alkylated tetramic acid compound, preparation method and use thereof” (BEIJING JOEKAI BIOTECH. LLC, priority 2017, dated 2021)
Where “and” joins values, the source holds several entries; their conditions need not be identical. Equal entries are not always repeated. Where two headings read alike, the source gives them in different places.

Assay: Pharmacokinetic evaluation, plasma and brain concentrations
Format: in vivo, ICR mice
Conditions: for concentration at 0.083 h / concentration at 0.25 h / concentration at 0.5 h / concentration at 1 h / concentration at 2 h / concentration at 4 h / concentration at 6 h / concentration at 8 h: male, ICR, mouse
Description: Distribution of a medicament in the body is one of the important indicators to determine the dose and efficacy of the medicament. Thus, excellent candidate compounds should have good pharmacokinetic characteristics. In addition, since the compound of the present invention is intended to be used for the treatment of Alzheimer's disease, which is a disease of the central nervous system, the distribution pattern of the compound in the brain and the blood is also one of the subjects to be investigated. In this experiment, compound 50561 was administered to mice […] or by gavage, and the concentrations of the compound in blood and brain were measured at specific time points to determine the pharmacokinetic parameters.
Forty-eight male ICR mice purchased from Shanghai Sippr-BK Lab. Animal Co. Ltd were used in this experiment. The oral group was fasted for 10-14 hours before administration, and feeding was restored 4 hours after administration. Samples were collected from the intravenous administration group 0.083 h, 0.25 h, 0.5 h, 1 h, 2 h, 4 h, 8 h, and 24 h after administration, respectively: while for the oral administration group, about 0.5 mL of blood was collected from the heart 0.25 h, 0.5 h, 1 h, 2 h, 4 h, 6 h, 8 h, and 24 h after administration, respectively. Heparin sodium was used for anticoagulation. Blood samples were collected and placed on ice, and plasma was separated by centrifugation (centrifugation conditions: 8000 rpm, 6 minutes, 4C). The collected plasma was stored at −80° C. before analysis. After collecting plasma samples, brain tissues were collected, washed with normal saline, water-absorbed by filter paper, weighed immediately, and then placed in labeled tubes (one tube for one brain tissue). The samples to be tested were temporarily placed on ice before being stored in a −80° C. refrigerator.
The analysis methods of biological samples and the analysis of all samples were done by Medicilon Pharmaceutical Technology (Shanghai) Co., Ltd. The intraday accuracy evaluation of the quality control samples was carried out while analyzing the samples, and the accuracy of over 66.7% of the quality control samples was required to be between 80-120%.
When calculating the pharmacokinetic parameters, the BLQ before Cmax (including “No peak”) was calculated as 0; BLQ occurring after Cmax (including “No peak”) was not involved in the calculation. WinNonlin Professional V 5.2 (Pharsight, USA) was adopted to calculate the following pharmacokinetic parameters: AUC(0-t), AUC(0-∞), T1/2, MRT(0-∞), Cmax, and Tmax. The tissue/plasma ratio was to be calculated by the following formula based on the blood concentration data at different time points: Tissue/plasma ratio (mL/g)=tissue blood concentration/plasma blood concentration.

[1] = brain, iv, 1 mg/kg, IV 1 mg/kg, read-out: Brain tissue concentration, Mean
[2] = brain, iv, 1 mg/kg, IV 1 mg/kg, read-out: Brain tissue concentration, individual mice
[3] = brain, po, 10 mg/kg, PO 10 mg/kg, read-out: Brain tissue concentration, Mean
[4] = brain, po, 10 mg/kg, PO 10 mg/kg, read-out: Brain tissue concentration, individual mice
[5] = plasma, iv, 1 mg/kg, IV 1 mg/kg, read-out: Blood concentration, Mean
[6] = plasma, iv, 1 mg/kg, IV 1 mg/kg, read-out: Blood concentration, individual mice
[7] = plasma, po, 10 mg/kg, PO 10 mg/kg, read-out: Blood concentration, Mean
[8] = plasma, po, 10 mg/kg, PO 10 mg/kg, read-out: Blood concentration, individual mice

For `O=C1C=C(OCc2ccc(F)cc2)[C@H](Cc2ccccc2)N1` [Compound 50561], which “Brain/plasma ratio, Mean” value (PO 10 mg/kg, 6 hr) is on record?
The value was 2.511 mL/G.

And the “Blood concentration, individual mice” value (PO 10 mg/kg, 6 hr, 10 mg/kg)?
Its value is 6.30 ng/mL and 8.82 ng/mL.

And the “Brain tissue concentration, individual mice” value (“Brain tissue concentration” below) (PO 10 mg/kg, 6 hr, 10 mg/kg)?
Its value is 11.72 ng/G and 17.40 ng/G and 25.83 ng/G.

What about the “Brain/plasma ratio, individual mice” value (PO 10 mg/kg, 6 hr, 10 mg/kg) of the same compound?
The value was 1.839 mL/G and 2.764 mL/G and 2.929 mL/G.

What about the “Brain/plasma ratio, Mean” value (PO 10 mg/kg, 8 hr) of the same compound?
Its value is 2.009 mL/G.

What about the “Blood concentration, individual mice” value (PO 10 mg/kg, 8 hr, 10 mg/kg) of the same compound?
The value was 4.77 ng/mL and 3.88 ng/mL and 1.63 ng/mL.

What about the “Brain tissue concentration” value (PO 10 mg/kg, 8 hr, 10 mg/kg) of the same compound?
Its value is 9.49 ng/G and BLQ.

What about the “Brain/plasma ratio, individual mice” value (PO 10 mg/kg, 8 hr, 10 mg/kg) of the same compound?
Its value is 1.575 mL/G and 2.443 mL/G.

What about the “Blood concentration, individual mice” value (PO 10 mg/kg, 24 hr) of the same compound?
The value was “BLQ”.

And the “Brain tissue concentration” value (PO 10 mg/kg, 24 hr)?
Its value is “BLQ”.

And the “content in brain tissue compared with blood” value (after intravenous injection and oral administration)?
Its value is “higher than that in the blood”.

What about the concentration at 0.083 h [1] of the same compound?
Its concentration at 0.083 h is 738 ng/g.

And the concentration at 0.25 h [1]?
Its concentration at 0.25 h is 454 ng/g.

And the concentration at 0.25 h [2]?
The concentration at 0.25 h was 462 ng/g.

And the concentration at 0.5 h [1]?
The concentration at 0.5 h was 204 ng/g.

And the concentration at 0.5 h [2]?
The concentration at 0.5 h was 148 ng/g.

What about the concentration at 1 h [1] of the same compound?
Its concentration at 1 h is 43.1 ng/g.

And the concentration at 1 h [2]?
Its concentration at 1 h is 42.6 ng/g.

What about the concentration at 0.25 h [3] of the same compound?
Its concentration at 0.25 h is 1220 ng/g.

And the concentration at 0.25 h [4]?
Its concentration at 0.25 h is 1470 ng/g.

What about the concentration at 0.5 h [3] of the same compound?
Its concentration at 0.5 h is 1600 ng/g.

What about the concentration at 1 h [3] of the same compound?
Its concentration at 1 h is 1120 ng/g.

And the concentration at 1 h [4]?
Its concentration at 1 h is 906 ng/g.

And the concentration at 2 h [3]?
The concentration at 2 h was 335 ng/g.

And the concentration at 4 h [3]?
The concentration at 4 h was 41.7 ng/g.

And the concentration at 6 h (brain, po, 10 mg/kg, PO 10 mg/kg, 6 hr, read-out: Brain tissue concentration, Mean)?
The concentration at 6 h was 18.3 ng/g.

And the concentration at 8 h (brain, po, 10 mg/kg, PO 10 mg/kg, 8 hr, read-out: Brain tissue concentration, Mean)?
Its concentration at 8 h is 8.5 ng/g.

What about the concentration at 8 h (brain, po, 10 mg/kg, PO 10 mg/kg, 8 hr, read-out: Brain tissue concentration, individual mice) of the same compound?
The concentration at 8 h was 7.52 ng/g.

What about the concentration at 0.083 h [5] of the same compound?
The concentration at 0.083 h was 302 ng/mL.

What about the concentration at 0.25 h [5] of the same compound?
The concentration at 0.25 h was 195 ng/mL.

And the concentration at 0.25 h [6]?
Its concentration at 0.25 h is 188 ng/mL.

And the concentration at 0.5 h [5]?
The concentration at 0.5 h was 82 ng/mL.

And the concentration at 0.5 h [6]?
Its concentration at 0.5 h is 58.1 ng/mL.

And the concentration at 1 h [5]?
The concentration at 1 h was 15.3 ng/mL.

And the concentration at 0.25 h [7]?
Its concentration at 0.25 h is 653 ng/mL.

And the concentration at 0.25 h [8]?
The concentration at 0.25 h was 754 ng/mL.

And the concentration at 0.5 h [7]?
Its concentration at 0.5 h is 727 ng/mL.

And the concentration at 0.5 h [8]?
The concentration at 0.5 h was 1020 ng/mL.

And the concentration at 1 h [7]?
Its concentration at 1 h is 499 ng/mL.

What about the concentration at 1 h [8] of the same compound?
The concentration at 1 h was 365 ng/mL.

And the concentration at 2 h [7]?
Its concentration at 2 h is 144 ng/mL.

What about the concentration at 4 h [7] of the same compound?
The concentration at 4 h was 18.9 ng/mL.

And the concentration at 6 h (plasma, po, 10 mg/kg, PO 10 mg/kg, 6 hr, read-out: Blood concentration, Mean)?
The concentration at 6 h was 7.16 ng/mL.

And the concentration at 6 h (plasma, po, 10 mg/kg, PO 10 mg/kg, 6 hr, read-out: Blood concentration, individual mice)?
Its concentration at 6 h is 6.37 ng/mL.

What about the concentration at 8 h (plasma, po, 10 mg/kg, PO 10 mg/kg, 8 hr, read-out: Blood concentration, Mean) of the same compound?
Its concentration at 8 h is 3.43 ng/mL.
